Assay results: patent US6743917B2, “Camptothecin analogs and methods of preparation thereof” (University of Pittsburgh, priority 1993, dated 2004)
pIC50: −log10 of the molar value. Values after ≈ are worked out from the molar mass of the structure shown. Read-outs that look alike come from different tables or passages of the source.

Columns and labels:
[1] = test system: MDA-MB-435 tumorigenic metastatic human breast cancer cells; assay: cells; type: cell-based; settings: Homo sapiens, MDA-MB-435 cells, 72 hrs exposure
Procedure: Cells. […] The cells were exposed to a range of drug concentrations for 72 hr exposure periods and then viability was assessed using a sulphorrhodamine B (SRB) assay. SRB assays were performed using a standard assay.
Sulphorhodamine B (SRB) assay was used. This assay measures the total protein levels in the living cells. Proteins from dead cells are lysed and removed in the washing step before TCA fixation. However, it is possible that cells in the early stage of death still have their membrane integrity and therefore retain the protein contents inside. As a result, the optical density at 490 nm can sometimes be overestimated and the cytotoxicity underestimated. […] The SRB assay is now a well regarded assay and was recently approved by NCI as a standard assay for anticancer drug screening.

[2] = Blood levels of DB-67 after intrastomach dosing; type: in vivo; settings: 5 mg/kg intrastomach injection in DMSO; samples at 30 min, 1 hr, 2 hr, 4 hr
Procedure: To evaluate the blood levels achieved following dosing at 5 mg/kg, four animals were given 0.1 ml intrastomach injections of DB-67 dissolved in DMSO. The stock contained DB67 at a concentration of 1.6 mg/ml. At time points of 30 min, 1 hr, 2 hr, and 4 hr, 1 ml samples of blood were drawn and collected by heart puncturing. The samples were centrifuged for 3 min and stored frozen until analysis was carried out.

[3] = Equilibrium binding to DMPG small unilamellar vesicles (fluorescence anisotropy titration); settings: for KDMPG overall association constant: PBS buffer at PH 7.4 and 37° C.
[4] = Equilibrium binding to DMPC small unilamellar vesicles (fluorescence anisotropy titration); settings: for KDMPC overall association constant: PBS buffer at PH 7.4 and 37° C.
[5] = in vitro; settings: human
[6] = Kinetics of lactone ring opening in PBS buffer (HPLC); type: physicochemical; settings: for % Lactone at Equilibrium: PBS
[7] = Kinetics of lactone ring opening in RBC (HPLC); type: in vitro ADME, human; settings: RBC
Description: Kinetics of Lactone Ring Opening. […] Mi and Burke (1994), supra. […] Louis, Mo.) was used.

[8] = Self-association in aqueous solution (fluorescence intensity with time); type: physicochemical; settings: lactone drug forms added to solution, time=0
Procedure: FIG. 22 summarizes the dependence of the fluorescence intensity of DB172 as a function of time and pH. In these experiments DB172 is added to solution as the lactone form. At low pH where the drug remains in the lactone form, the change in intensity with time is the lowest. At pH 10, where the conditions are such that the lactone more readily hydrolyzes and forms carboxylate, a significant change in fluorescence intensity is observed. It appears that a pH 10 nonfluorescent micellular aggregates composed of lactone disassemble and form open-ring carboxylate forms that tend to exist in solution as monomeric fluorescent species.
FIG. 23 explores the fluorescence intensity of DB172 as a function of concentration. Following the addition of low concentration of lactone drug to solution, the change in fluorescence signal is the greatest whereas at high drug concentration (10 ^μM) the fluorescence intensity changes are minimal. It is believed that a low concentration the micellular aggregates of DB172 displaying reduced fluorescence can disassemble and form fluorescent carboxylate species, but at higher drug concentration the equilibrium favors that the agent remains in the aggregated or reduced fluorescence state. […] Once again this decrease in fluorescence that occurs at reduced pH appear to be due to the formation of lactone aggregates of reduced fluorescence quantum yield.
FIGS. 21 through 24 are consistent with the unusual ability of DB172 lactone to self-associate and form micelles at micromolar drug concentrations. The micellular DB172 aggregates display a reduced fluorescence. If conditions allow for hydrolysis to occur such that carboxylate forms, there is an increase in the fluorescence intensity of the sample. FIG. 25 compares the relative change in the fluorescence emission of a sample following addition of lactone drug forms to solution. In these experiments the values for each drug are normalized to a value of 1 at time equals to zero, and the ability of the various analogs to disassociate in the event the drugs are aggregated at time=0 is monitored with time. […]

[9] = Kinetics of lactone ring opening in PBS containing HSA (HPLC); settings: HSA (PBS containing 30 mg/ml HSA)
[10] = Kinetics of lactone ring opening in whole human blood (HPLC); settings: Whole Blood, physiological temperature;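 also: hydrolytic opening of the camptothecin lactone ring followed over time by quantitative C18 reversed-phase HPLC in human whole blood at physiological temperature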
[11] = test system: glioma cells (U87, A172, SG388, T98G, LN-Z308); assay: Inhibition of cell proliferation in glioma cell lines; type: cell-based; settings: several lines of glioma cells (U87, A172, SG388, T98G, LN-Z308), read-out: median effective concentrations, inhibiting cell proliferation
[12] = absence of HSA, read-out: IC50 (w/o HSA)

CC[C@@]1(O)C(=O)OCc2c1cc1n(c2=O)Cc2c-1nc1ccc(O)cc1c2[Si](C)(C)C(C)(C)C [DB-67, (20S)10-Hydroxy-7-tert-butyldimethylsilylcamptothecin]
pIC50 [1, 12]: 8.15 | pIC50 ([1]; presence of 1 mg/ml HSA, read-out: IC50 (w/HSA)): 7.66 | DB67 levels in blood after oral dosage [2]: > 40 ng/mL | KDMPG overall association constant [3]: 2800 M⁻¹ | K value for DMPG, fold greater than camptothecin ([3]; relative to camptothecin): 28 fold | KDMPC overall association constant [4]: 2700 M⁻¹ | K value for DMPC, fold greater than camptothecin ([4]; relative to camptothecin): 27 fold | times more lipophilic than camptothecin ([4]; relative to camptothecin): 25 times | half-life ([5]; whole blood): 130 min | % Lactone at Equilibrium [6]: 10.2 +/− 0.3% | % Lactone at Equilibrium [7]: 41.4 +/− 0.7% | t1/2 [7]: 51.4 ± 0.5 min | self-association / aggregation state in solution [8]: much more likely to be found in solution as monomeric drug relative to DB172 | % Lactone at Equilibrium [9]: 10.5 +/− 2.0% | t1/2 [9]: 119.0 ± 5.3 min | % Lactone at Equilibrium [10]: 30% | t1/2 [10]: 133.0 ± 15.9 min | % Lactone at Equilibrium ([10]; listed as DB 67): 30.5 +/− 1.9%

CC[C@@]1(O)C(=O)OCc2c1cc1n(c2=O)Cc2c-1nc1ccc(O)cc1c2CC[Si](C)(C)C [DB-174, (20S)-10-Hydroxy-7-[(2-trimethylsilyl)ethyl]camptothecin]
pIC50 [1, 12]: 7.92 | KDMPG overall association constant [3]: 6600 M⁻¹ | KDMPC overall association constant [4]: 9000 M⁻¹ | K value for DMPC, fold greater than camptothecin ([4]; relative to camptothecin): ~90 fold | half-life ([5]; blood): 40.3 min | % Lactone at Equilibrium [6]: 13.7 +/− 0.7% | half-life ([6]; buffer, pH 7.4): 29.7 min | EC50 [11]: 0.01 to 0.1 mg/L (≈ 0.0215 to 0.215 µM)
